Patent publication US20180147296A1, “CARBON MATERIAL DELIVERY SYSTEMS AND METHODS” (The Research Foundation for The State University of New York, priority 2015, published 2018)

How the values were obtained:
[1] = PrestoBlue assay, separate cultures; assay type: cell-based; details: human, separate culture, 80 μM Luc free or loaded, read-out: viability compared to untreated controls
Protocol: (§1) Luc alone (80 μM), 80 μM Luc loaded O-GNR-PEG-DSPE and O-GNR-PEG-DSPE (same weight as used for Luc loading) were incubated with CMV/U251, A1-5/CMV/U251, MCF-7 and CG-4 cells (5×10^3 cells per well in 96 well plates) for 24 hours. Following the incubation period the media was removed and the cells were washed twice with 1×PBS. 100 μL of fresh media was added to each well, as well as 10 μL of PrestoBlue® to each well, and incubated for 4 hours. Fluorescence was measured by Cytofluor fluorescence multiwell plate reader (Infinite M200, Tecan Group Ltd, NC, USA) with excitation at 530 nm, and emission at 580 nm.
(§2) The cell viability in terms of % of unexposed cells is expressed as the percentage of (Ftest−Fblank)/(Fcontrol−Fblank), where Ftest is the fluorescence of the cells exposed to nanoribbon-drug sample, Fcontrol is the fluorescence of the untreated sample and Fblank is the fluorescence of the wells without any cells. The PrestoBlue® reading for all lysed cells was also taken for comparison.

[2] = system: MCF-7; assay: PrestoBlue assay, separate cultures; assay type: cell-based; details: 80 μM Luc free or loaded; 24 hours
Protocol: as §1, §2

[3] = system: CG-4; assay: PrestoBlue assay, separate cultures; assay type: cell-based, rat; details: 80 μM Luc free or loaded; 24 hours
Protocol: as §1, §2

[4] = PrestoBlue assay, MCF-7-CMV/U251 co-culture; assay type: cell-based; details: human, read-out: viability compared to untreated controls
Protocol: (§3) MCF-7, CG-4 and CMV/U251 were seeded separately on 12 mm round glass coverslips (Fisherbrand, Fisher Scientific, PA) in 100 mm plates at a density of 2.2×10^6 cells and allowed to grow overnight. For the two separate co-culture condition experiments, one coverslip from each cell line was placed in 6 well plates, for a total of two coverslips per well. These cells were then incubated with Luc alone (80 μM), 80 μM Luc loaded O-GNR-PEG-DSPE or O-GNR-PEG-DSPE for 24 h. After the incubation period, the media was removed and the cells were washed twice with 1×PBS. Each coverslip was then transferred to its own well in 6 well plates containing 3 mL of media and 300 μL of PrestoBlue® reagent. After incubating for 4 h, the fluorescence intensity was recorded using the procedure described above.

[5] = PrestoBlue assay, CG-4-CMV/U251 co-culture; assay type: cell-based; details: read-out: viability compared to untreated controls
Protocol: as §3

[6] = system: A1-5/CMV/U251; assay: Annexin V/PI staining, flow cytometry; assay type: cell-based; details: 4 hours; for % AV+ / % PI + AV+ / % PI+ / % PI−AV−: A1-5/CMV/U251, free or on GONR
Protocol: (§4) Luc alone and Luc-loaded O-GNR-PEG-DSPEs at different concentrations (5-80 μM) were incubated with CMV/U251, A1-5/CMV/U251 and CG-4 (5×10^5 cells/3 mL in 6-well plates) for 4 hours. Unexposed cells were used as control. Unloaded O-GNR-PEG-DSPEs in amounts equivalent to the loaded nanoparticles were also exposed to all the cell types as delivery agent control. The viability of the cells was analyzed by flow cytometry after Annexin V/PI staining using FACS Calibur Cell Sorter (BD Biosciences, San Jose, Calif.).
(§5) Annexin V (AV) is a 35 KDa phospholipid binding protein with an affinity for phosphotidyl serine. Early apoptotic cells show exposed phosphotidyl serine on their cell surface while it is still intact. PI on the other hand can only enter dead cells or early necrotic cells with compromised membranes. Thus, in flow cytometry AV+/PI+ represents dead cells, AV+/PI− represents cells in early apoptosis, AV−/PI+ represents dead or necrotic cells with compromised membranes, and AV−/PI− represents healthy living cells. […] However, 37% of cells were still living after 4 hours of exposure to O-GNR-PEG-DSPE loaded with 80 μM Luc.

[7] = system: CMV/U251; assay: Annexin V/PI staining, flow cytometry; assay type: cell-based; details: 4 hours; for % AV+ / % PI + AV+ / % PI+ / % PI−AV−: CMV/U251, free or on GONR
Protocol: as §4, §5

[8] = system: HeLa cells; assay: Live-cell confocal microscopy of NBD-ceramide; assay type: cell-based; details: 40 μg/mL loaded O-GNRs or equal NBD-ceramide in ethanol; one hour
Protocol: In order to visualize the uptake of ceramide-loaded nanoparticles into cells, we loaded O-GNRs with C6 ceramide conjugated to 4-Chloro-7-nitrobenzofurazan (NBD-ceramide). HeLa cells were seeded in glass-inset confocal dishes at a density of 7.5×10^4 cells/mL with 2 mL per plate and allowed to adhere overnight. The following day, cells were placed in a LiveCell™ stage top incubation platform (Pathology Devices Inc., Westminster, Md., USA) and NBD-ceramide-loaded O-GNRs were added to these plates at a concentration of 40 μg/mL. As a control, cells were also incubated with an equivalent amount of NBD-ceramide in ethanol in a separate experiment. The cells were then imaged using a Leica TCS SP8 Laser Scanning Confocal Microscope System (Buffalo Grove, Ill., USA) over a period of one hour at two minute intervals.

[9] = system: HeLa cells; assay: Confocal microscopy of C12 NBD ceramide; assay type: cell-based; details: 2 hours
Protocol: C12 NBD ceramide was loaded onto O-GNRs using the same procedure as C24 and C16 ceramide. HeLa cells were seeded in glass-inset confocal dishes at a density of 7.5×10^4 cells/mL with 2 mL per plate and allowed to adhere overnight. Cells were treated with either 5 μM fluorescent C12 NBD ceramide or an equivalent amount of fluorescent C12 NBD ceramide loaded on O-GNRs for 2 hours and imaged using a Leica TCS SP8 Laser Scanning Confocal Microscope System (Buffalo Grove, Ill., USA). Cells were pretreated with inhibitors of O-GNR uptake Dynasore and Gefitinib, endosome disruptor Desipramine, or no treatment for 30 minutes prior to the addition of ceramide or ceramide-loaded O-GNRs.

[10] = system: HeLa cells; assay: PrestoBlue viability assay, C6 ceramide; assay type: cell-based; details: 8 μg/mL of C6; 24 hrs
Protocol: HeLa cells were seeded in flat-bottomed 96 well plates at a density of 5000 cells/well and were allowed to adhere overnight. Ceramide-loaded nanoparticles (O-GNRs or GNPs) were added to each well at various concentrations ranging from 10-100 μg/mL of nanoparticles. In order to ensure that any observed decrease in viability compared to untreated cells could not be attributed to the loading process, the loading process was repeated with only nanoparticles and incubated them with HeLa cells at the highest concentration used (100 μg/mL). After 24 hours, the media was aspirated and each well was rinsed twice with PBS. […] After 2 hours, the plates were removed and the fluorescence intensity of each well was measured using a Molecular Devices SpectraMax M2e (Sunnyvale, Calif., USA) with an excitation wavelength of 560 nm and an emission wavelength of 590 nm. […] The cell viability is expressed as a percent of the […] with the formula: […]
where Itest is the fluorescence intensity of cells exposed to ceramide-loaded nanoparticles, Icontrol is the fluorescence intensity of […], and Iblank is the fluorescence intensity from empty wells.
In a separate experiment, the efficacy of ceramide-loaded O-GNRs were compared to C6 ceramide without nanoparticles placed directly in the media. […] Viability was assessed with PrestoBlue using identical methods as described above.

## CCN(CC)CCNc1ccc(C)c2sc3ccccc3c(=O)c12 [Lucanthone]
[1]; A1-5/CMV/U251 cells
  viability at 24 h, 80 μM: ~30%
[1]; CMV/U251 cells
  viability at 24 h, 80 μM: ~40%
[2]
  toxicity (PrestoBlue): toxic
[3]
  toxicity (PrestoBlue): toxic
[4]; CMV/U251 cells on coverslips, co-cultured with MCF-7 cells, CMV/U251 in co-culture with MCF-7, 80 μM Luc free or loaded, or carrier alone
  viability at 24 h, 80 μM: ~28%
[4]; MCF-7 cells on coverslips, co-cultured with CMV/U251 cells, MCF-7 in co-culture with CMV/U251, 80 μM Luc free or loaded, or carrier alone
  viability at 24 h, 80 μM: ~36%
[5]; human, CMV/U251 cells on coverslips, co-cultured with CG-4 cells, CMV/U251 in co-culture with CG-4, 80 μM Luc free or loaded
  viability at 24 h, 80 μM: ~15%
[5]; rat, CG-4 cells on coverslips, co-cultured with CMV/U251 cells, CG-4 in co-culture with CMV/U251, 80 μM Luc free or loaded
  viability at 24 h, 80 μM: ~30%
[6]; 40 μM free Luc
  cell death: 100%
[6]; 5 μM lucanthone
  % AV+: 0%
  % PI + AV+: 0%
  % PI+: 76%
  % PI−AV−: 24%
[6]; 10 μM lucanthone
  % AV+: 0%
  % PI + AV+: 0%
  % PI+: 92%
  % PI−AV−: 8%
[6]; 20 μM lucanthone
  % AV+: 0%
  % PI + AV+: 0%
  % PI+: 98%
  % PI−AV−: 2%
[6]; 40 μM lucanthone
  % AV+: 0%
  % PI + AV+: 0%
  % PI+: 100%
  % PI−AV−: 0%
[6]; 80 μM lucanthone
  % AV+: 0%
  % PI + AV+: 0%
  % PI+: 100%
  % PI−AV−: 0%
[7]; 80 μM free Luc
  cell death: 100%
[7]; 5 μM lucanthone
  % AV+: 0%
  % PI + AV+: 17%
  % PI+: 78%
  % PI−AV−: 20%
[7]; 10 μM lucanthone
  % AV+: 0%
  % PI + AV+: 0%
  % PI+: 95%
  % PI−AV−: 5%
[7]; 20 μM lucanthone
  % AV+: 0%
  % PI + AV+: 0%
  % PI+: 97%
  % PI−AV−: 3%
[7]; 40 μM lucanthone
  % AV+: 0%
  % PI + AV+: 0%
  % PI+: 97%
  % PI−AV−: 3%
[7]; 80 μM lucanthone
  % AV+: 5%
  % PI + AV+: 0%
  % PI+: 95%
  % PI−AV−: 0%
[7]; 80 μM lucanthone, listed as Luc
  % PI−AV−: no healthy living cells remaining
[7]; CMV/U251 and A1-5/CMV/U251, 5-80 μM
  nature of cell death (dead cells PI+/AV−): necrotic

## CCCCCCCCCCCCC/C=C/C(O)C(CO)NC(=O)CCCCCNc1ccc([N+](=O)[O-])c2nonc12 [NBD ceramide, C6 N-[6-[(7-nitro-2-1,3-benzoxadiazol-4-yl)amino]hexanoyl]-D-erythro-sphingosine]
[8]
  uptake of NBD ceramide into cells (fluorescence): rapid uptake

## CCCCCCCCCCCCC/C=C/[C@@H](O)[C@H](CO)NC(=O)CCCCCCCCCCCNc1ccc([N+](=O)[O-])c2nonc12 [C12 NBD ceramide]
[9]; pretreated with Dynasore 30 minutes
  fluorescence compared with cells not treated with inhibitor: no difference
[9]; pretreated with Gefitinib 30 minutes
  fluorescence compared with cells not treated with inhibitor: no difference
[9]; pretreated with desipramine 30 minutes
  endosome localization compared with cells not treated with desipramine: significantly less endosome localization

## CCCCCCCCCCCCC/C=C/[C@@H](O)[C@H](CO)NC(=O)CCCCC [C6 ceramide, C6-Ceramide]
[10]
  HeLa cell viability greater than lysed cells: 55.8%
